Experimental data reported in patent publication US20260327216A1, “SUBSTITUTED OXAZOLONE COMPOUND FOR DECREASING LEVELS OF IKZF I-4 PROTEINS” (BRISTOL-MYERS SQUIBB COMPANY, priority 2023, published 2026).

Key:
IKZF2 Helios = IKZF2 Helios (Homo sapiens, UniProt Q96SW2+Q9UKS7); experiment: Human Regulatory T Cell Degradation Assay, IKZF2; assay type: cell-based; design: endogenous in cells; host or cells: FACS-sorted human CD4+CD127lowCD25+ Treg cells from healthy leukopaks; settings: human regulatory T cells, 20 hours; for Dmax: Regulatory T cell, 100% = complete degradation, read-out: IKZF2 Helios max % deg. observed
Sequence of IKZF2 Helios (Q9UKS7 whole entry): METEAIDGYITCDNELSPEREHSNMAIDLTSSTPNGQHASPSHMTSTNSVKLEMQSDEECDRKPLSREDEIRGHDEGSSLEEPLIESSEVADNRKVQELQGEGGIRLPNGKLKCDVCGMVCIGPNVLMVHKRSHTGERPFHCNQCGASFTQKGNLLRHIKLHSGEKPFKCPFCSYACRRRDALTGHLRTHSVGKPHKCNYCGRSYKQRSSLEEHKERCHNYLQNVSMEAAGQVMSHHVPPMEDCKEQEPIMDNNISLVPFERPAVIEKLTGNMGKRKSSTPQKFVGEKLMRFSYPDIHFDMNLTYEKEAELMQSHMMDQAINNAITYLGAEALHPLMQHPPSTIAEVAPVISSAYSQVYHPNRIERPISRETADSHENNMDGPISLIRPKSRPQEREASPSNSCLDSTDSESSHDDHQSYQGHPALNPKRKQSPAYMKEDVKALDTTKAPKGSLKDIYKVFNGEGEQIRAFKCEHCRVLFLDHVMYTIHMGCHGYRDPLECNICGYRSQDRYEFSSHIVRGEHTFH
Sequence of IKZF2 Helios (Q96SW2 whole entry): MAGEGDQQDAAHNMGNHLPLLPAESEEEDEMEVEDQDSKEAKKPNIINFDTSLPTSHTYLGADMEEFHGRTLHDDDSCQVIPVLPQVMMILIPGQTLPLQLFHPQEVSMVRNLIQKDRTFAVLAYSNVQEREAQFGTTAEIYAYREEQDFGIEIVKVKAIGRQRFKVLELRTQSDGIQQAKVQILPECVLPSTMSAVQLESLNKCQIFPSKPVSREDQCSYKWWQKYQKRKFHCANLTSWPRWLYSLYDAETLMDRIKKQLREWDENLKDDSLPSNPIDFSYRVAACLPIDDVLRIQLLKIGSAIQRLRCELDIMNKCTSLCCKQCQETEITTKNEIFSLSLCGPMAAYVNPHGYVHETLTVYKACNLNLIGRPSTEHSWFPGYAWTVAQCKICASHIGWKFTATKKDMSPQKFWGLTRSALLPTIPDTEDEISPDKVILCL
Sequence of IKZF2 Helios (Q16531 whole entry partner): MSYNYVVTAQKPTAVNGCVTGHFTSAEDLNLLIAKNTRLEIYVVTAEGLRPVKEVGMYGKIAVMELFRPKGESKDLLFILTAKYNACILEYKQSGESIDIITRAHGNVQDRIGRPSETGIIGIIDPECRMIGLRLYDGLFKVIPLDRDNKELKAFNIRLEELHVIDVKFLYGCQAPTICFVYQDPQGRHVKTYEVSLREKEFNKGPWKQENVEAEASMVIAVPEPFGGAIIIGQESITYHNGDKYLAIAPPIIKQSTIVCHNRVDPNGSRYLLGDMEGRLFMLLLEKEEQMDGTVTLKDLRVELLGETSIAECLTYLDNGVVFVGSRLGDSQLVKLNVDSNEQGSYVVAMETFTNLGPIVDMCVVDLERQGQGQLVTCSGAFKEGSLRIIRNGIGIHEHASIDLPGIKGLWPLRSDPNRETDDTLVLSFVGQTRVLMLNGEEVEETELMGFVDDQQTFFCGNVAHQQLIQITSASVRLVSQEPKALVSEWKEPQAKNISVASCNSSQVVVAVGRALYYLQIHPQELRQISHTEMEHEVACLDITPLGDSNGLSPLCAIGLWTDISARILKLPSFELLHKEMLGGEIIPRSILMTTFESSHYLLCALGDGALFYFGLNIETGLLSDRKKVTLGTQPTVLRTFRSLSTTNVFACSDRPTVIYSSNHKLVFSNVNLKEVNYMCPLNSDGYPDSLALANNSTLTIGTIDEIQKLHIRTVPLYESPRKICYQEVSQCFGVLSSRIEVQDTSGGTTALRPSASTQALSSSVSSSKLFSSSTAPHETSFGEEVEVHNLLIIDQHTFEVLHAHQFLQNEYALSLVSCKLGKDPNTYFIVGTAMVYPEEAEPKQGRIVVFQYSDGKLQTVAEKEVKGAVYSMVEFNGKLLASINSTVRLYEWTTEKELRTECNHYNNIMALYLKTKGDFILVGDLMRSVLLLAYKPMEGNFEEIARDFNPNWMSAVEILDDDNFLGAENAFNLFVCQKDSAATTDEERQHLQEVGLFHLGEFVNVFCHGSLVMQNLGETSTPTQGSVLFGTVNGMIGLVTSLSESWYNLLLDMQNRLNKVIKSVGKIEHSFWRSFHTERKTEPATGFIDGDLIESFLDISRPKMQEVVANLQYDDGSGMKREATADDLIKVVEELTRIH
Procedure: Cryopreserved human regulatory T cells were thawed in RPMI+10% FBS+20 ng/mL IL-2. After being spun at 1200 rpm for 5 mins, the cells were resuspended in RPMI+10% FBS+20 ng/mL and rested at 37° C. with 5% CO2 for 3 hours. The cells were then plated at 40,000 cells/well in 40 μL RPMI+10% FBS+20 ng/ml human IL-2 in a 384 well cell culture plate prior to using acoustic dispensing technology (ECHO 555) for adding compounds of interest. Cell cultures were incubated for 20 hours at 37° C. and 5% CO2. In order to facilitate analysis, cell cultures were spun down at 1200 rpm for 5 minutes and the supernatant was discarded using an EL406 plate washer. After washing three times with 70 μL PBS, cell pellets were resuspended in 50 μL of near IR viability staining solution (Life Technologies, Cat #L34975) and incubated for 30 minutes on ice protected from light. Cells were washed three times with 70 μL PBS+0.5% BSA using an EL406 plate washer. After shaking the plate to dislodge the cell pellet, cells were resuspended in 50 μL of Fixation Buffer (eBioScience FoxP3 buffer set 00-5523-00) for 60 minutes at room temperature. After centrifuging and discarding the supernatant, cells were permeabilized with 50 μL of permeabilization buffer (eBioScience FoxP3 buffer set 00-5523-00) for 10 minutes at room temperature. Following permeabilization, cells were spun down and the supernatant was replaced with 30 μL fluorescently labelled antibodies against the intracellular targets Helios (Helios-APC [BioLegend, Cat #137222, 1:50])]), Aiolos, and Ikaros 1× Permeabilization buffer and staining reactions were incubated for 1 bour at room temperature; protected from light. Subsequently, 30 μL of 1× Permeabilization buffer was added prior to centrifuging the cells and discarding the supernatant. Stained cells were resuspended in 30 μL of flow cytometry staining buffer (PBS+0.5% BSA) and analyzed using an Intellicyt Ique Plus flow cytometer.
(§1) Table B-1 lists the maximum observed degradation of the IKZF1 protein and IKZF2 protein as measured in the Human Regulatory T Cell Degradation assay. The results in Table B-1 were rounded to two digits. In the Human Regulatory T Cell Degradation assay, a value of 100% indicated no detectable protein remaining or complete degradation of the protein; and a value of 0% indicated no detectable degradation of the protein by the test compound.

IKZF1 Ikaros = IKZF1 Ikaros (Homo sapiens, UniProt Q13422+Q96SW2); experiment: Jurkat Cellular Degradation Assay, IKZF1; assay type: cell-based; design: endogenous in cells; settings: Jurkat cells, 72 h; for Dmax: human, 100% = complete degradation, 0% = no detectable degradation, read-out: IKZF1 Ikaros max % deg. observed
Sequence of IKZF1 Ikaros (Q13422 whole entry): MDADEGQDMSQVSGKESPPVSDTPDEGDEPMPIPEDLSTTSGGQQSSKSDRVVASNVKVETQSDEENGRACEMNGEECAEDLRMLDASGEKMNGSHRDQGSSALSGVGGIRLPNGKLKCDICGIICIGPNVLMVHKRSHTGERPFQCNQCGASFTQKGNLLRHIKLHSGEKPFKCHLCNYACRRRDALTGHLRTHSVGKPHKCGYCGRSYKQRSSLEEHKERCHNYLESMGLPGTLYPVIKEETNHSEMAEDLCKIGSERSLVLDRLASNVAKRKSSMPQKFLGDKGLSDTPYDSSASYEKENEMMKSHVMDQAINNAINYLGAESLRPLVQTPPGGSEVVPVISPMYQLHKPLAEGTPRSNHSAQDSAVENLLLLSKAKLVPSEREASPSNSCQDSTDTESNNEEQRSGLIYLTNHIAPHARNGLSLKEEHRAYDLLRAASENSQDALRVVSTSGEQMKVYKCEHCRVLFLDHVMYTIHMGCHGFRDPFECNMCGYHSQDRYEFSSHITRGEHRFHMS
Sequence of IKZF1 Ikaros (Q96SW2 whole entry): as the sequence (Q96SW2 whole entry) above
Sequence of IKZF1 Ikaros (Q16531 whole entry partner): as the sequence (Q16531 whole entry partner) above
Procedure: Jurkat cells were plated at 80,000 cells/well in 40 μL RPMI+10% FBS in a 384-well cell culture plate prior to using acoustic dispensing technology for adding a compound of interest. Cell cultures were incubated for 72 h at 37° C. and 5% CO2. In order to facilitate analysis, cell cultures were spun down at 200 rpm for 5 min and the supernatant was discarded. After shaking the plate to dislodge the cell pellet, cells were resuspended in 50 μL of Fixation Buffer (eBioscience FoxP3 buffer set 00-5523-00) for 60 min at room temperature. After centrifuging and discarding the supernatant, cells were permeabilized with 50 μL of Permeabilization buffer (eBioscience FoxP3 buffer set 00-5523-00) for 10 min at room temperature. Following permeabilization, cells were spun down and the supernatant was replaced with 20 μL fluorescently labelled antibodies against Helios, Ikaros and Aiolos or corresponding Isotype controls in 1× Permeabilization buffer (Ikaros-Alexa488 [Biolegend, Cat #368408, 1:50], Helios-PE [CST, Cat #29360, 1:50], Aiolos-Alexa647 [Biolegend, Cat #371106 Biolegend, 1:25]) and staining reactions were incubated for 1 h at room temperature while protected from light. Subsequently, 30 μL of 1× Permeabilization buffer was added prior to centrifuging the cells and discarding the supernatant. Stained cells were resuspended in 25 μL of flow cytometry staining buffer [PBS+0.2% bovine serum albumin (BSA)] and analyzed using an Intellicyt Ique Plus flow cytometer.
as §1, with “Table A-1” for “Table B-1”, “IKZF1 protein, IKZF2 protein,” for “IKZF1 protein”, “and IKZF3” for “and IKZF2”, “the Jurkat Cellular” for “the Human Regulatory T Cell”

[1] = concentration reducing protein level by 50% vs DMSO

Structure (SMILES)	Dmax (IKZF2 Helios) [%]	Dmax (IKZF1 Ikaros) [%]	DC50 (IKZF2 Helios; [1]) [nM]	DC50 (IKZF1 Ikaros; [1]) [nM]
O=C1CCC(n2cc(-c3ccccc3)oc2=O)C(=O)N1 (centres unmarked) [Comparative Compound A, 3-(2-oxo-5-phenyloxazol-3(2H)-yl)piperidine-2,6-dione]	57	57		
O=C1CCC(n2cc(-c3ccc(Br)cc3F)oc2=O)C(=O)N1 (centres unmarked) [Comparative Compound B, 3-(5-(4-bromo-2-fluorophenyl)-2-oxooxazol-3(2H)-yl)piperidine-2,6-dione]	25	17		
Cc1cc(-c2ccc(-c3cn(C4CCC(=O)NC4=O)c(=O)o3)c(F)c2)nc(N)c1OC(F)F (centres unmarked) [Example 1, 3-(5-(4-(6-Amino-5-(difluoromethoxy)-4-methylpyridin-2-yl)-2-fluorophenyl)-2-oxooxazol-3(2H)-yl)piperidine-2,6-dione]	90	70	0.68	749
